In US5389621A, “Method of enhancing the anticoagulant effects of aspirin using salicylamide” (University of Medicine and Dentistry of New Jersey, priority 1994, dated 1995):
“Also recorded” adds a separate entry of the source.

Columns and labels:
[1] = Tightly protein-bound 14C radioactivity after 14C-salicylamide; format: in vivo, male Sprague-Dawley rats; details: for Tightly protein-bound 14C in heart / Tightly protein-bound 14C in kidney / Tightly protein-bound 14C in liver / Tightly protein-bound 14C in lung / Tightly protein-bound 14C in plasma: 1.5 hr; for Effect on tightly protein-bound 14C in lung: 14C-SAM with ASA
Experimental: Forty-eight rats were divided into two groups.
The rats were anesthetized by light diethyl ether inhalation.
The plasma tightly protein-bound activity was measured by adding 100 μl of 10% trichloroacetic acid (TCA) to 100 μl of plasma in microcentrifuge tubes and vortexing the contents for 1 minute followed by centrifugation at 1800×g for 10 minutes. The supernatant was decanted and the tubes with the pellets in them were placed in scintillation vials each containing 15 ml of Aquasol-2 scintillation fluid. […] The radioactivity in the scintillation vials was counted in Beckman LS counter.
In the case of plasma analysis, 100 μl samples were used and the remainder of the procedure was the same as described above. The pellets were not dissolved but instead directly poured in a tube containing 15 ml of the scintillation fluid and the radioactivity was measured in the Beckman LS counter.

platelet cyclooxygenase = assay: Thromboxane B2 synthesis by arachidonic acid-stimulated platelet-rich plasma in vitro; format: cell-based, male Sprague-Dawley rats; details: for Effect on TX B2 formation / platelet cyclooxygenase: arachidonic acid-stimulated PRP
Source text: Was done manually by the method of Brecher and Conkite (1953) using phase contrast microscopy (Balplan) with a 40×annulus, 40×phase objective, and 10×ocular (total of 400×), and a special platelet counting chamber (American Optical Corp., Buffalo, N.Y.) and dilution with 1% ammonium oxalate. The platelet-rich plasma (PRP) was adjusted by dilution with platelet-poor plasma (PPP) to give a final count of 1×10^9 platelets/ml.
Arachidonic acid (as the sodium salt, >99.0% pure) was obtained from Sigma Chemical Co. and a stock solution of 34.5 mM was prepared by dissolving in isotonic saline. 20 μl of the stock solution were added to 440 μl of PRP (400 μl of PRP and 20 or 40 μl of treatment solution ±20 μl of saline) to make a 23 fold dilution. The final concentration of AA in PRP was 1.5 mM.
EDTA solution was prepared by adding 2 gm disodium EDTA and 0.8 gm NaCl and were adjusted to pH 7.4 with NaOH and made up to a final volume of 100 ml in distilled water. ASA solution was prepared by dissolving 30 mg in 10 ml of isotonic saline to make a solution of 3 mg/ml.
950 μl of EDTA solution were added to 50 μl of ASA solution and the mixture was vortexed. 40 μl of the mixture were pipetted in the experiment test tubes to stop further prostaglandin production.
Platelet-rich plasma (PRP) was prepared from male Sprague-Dawley rats (300-325 gm). The blood was collected by heart puncture and added to 3.8% citrate solution, final volume 9:1, blood:citrate. The blood was centrifuged at 120×g (750 rpm) for 15 minutes at 4° C. to obtain PRP. The rest of the blood was spun at 1800×g (3000 rpm) for 10 minutes to get the PPP which was used later for dilution of the PRP to achieve the final desired platelet concentration of 1×10^9 platelets/ml. 400 μl of PRP, containing 4×10^8 platelets, were pipetted in polypropylene tubes and the following treatment groups were studied:
1--Baseline (-ve control) tubes: to measure the baseline production of Thromboxane B2 (TX B2) by platelets during the time of the experiment, 60 μl of saline were added and left for 10 minutes in a shaking water bath at 37° C.
2--Control (+ve control) tubes: 20 μl of arachidonic acid (AA) solution were added to achieve a final concentration of 1.5 mM and the tubes were incubated […].
3--ASA and/or SAM treatment tubes: 20 μl of ASA (final conc. 130 μg/ml), 20 μl of SAM solution (final conc. 40 μg/ml), 20 μl of ASA/SAM(L) solution (final conc. 130/40 μg/ml) or 20 μl of ASA/SAM(H) solution (final conc. 130/120 μg/ml) were added to PRP together with 20 μl of saline for 10 minutes, then 20 μl of AA solution were added for additional 10 minutes.
4--ASA/SA treatment: 20 μl of ASA/SA solution (final conc. 130/130 μg/ml) and 20 μl of saline were added to the tubes for 10 minutes before AA was added for further 10 minutes.
5--ASA/SA/SAM treatment: 20 μl of ASA/SA solution (130/130 μg/ml as final conc.) and 20 μl of […] in low (L) or high (H) concentrations (40 or 120 μg/ml, final conc.) were added simultaneously to PRP followed 10 minutes later by AA.
6--SAM/SA treatment: 20 μl of SAM solution (final conc. 40 μg/ml) and 20 μl of SA solution (final conc. 130 μg/ml) were added followed 10 minutes later by AA for additional 10 minutes.
Also, the effect of SAM when administered first to the platelets followed 10 minutes later by ASA was studied to know whether the effect of SAM is time dependent or not.
During the treatment, all the tubes were incubated at 37° C. in a shaking water bath. Ten minutes after the addition of AA, or saline (for the control tubes), the experiment was ended by addition of 40 μl of EDTA/ASA solution. The tubes were immediately centrifuged at 1800×g for 15 minutes at 4° C. to precipitate the platelets and 100 μl of the supernatant were obtained for estimation of their content of TX B2 using a specific radioimmunoassay (Amersham International) (vide infra).
Radioimmunoassay Procedure for Measurement of Thromboxane B2 and 6-keto PG F1alpha […]

[2] = oral 14C-SAM 3 mg/kg, alone or with ASA 10 mg/kg
[3] = oral 14C-SAM 6 mg/kg, alone or with ASA 20 mg/kg

| SMILES | Tightly protein-bound 14C in heart [1, 2] | Tightly protein-bound 14C in kidney [1, 2] | Tightly protein-bound 14C in liver [1, 2] | Tightly protein-bound 14C in lung [1, 2] | Tightly protein-bound 14C in plasma [1, 2] | Tightly protein-bound 14C in heart [1, 3] | Tightly protein-bound 14C in kidney [1, 3] | Tightly protein-bound 14C in liver [1, 3] | Tightly protein-bound 14C in lung [1, 3] | Tightly protein-bound 14C in plasma [1, 3] | Reversal of SA effect by SAM (platelet cyclooxygenase; SAM 40 μg/ml with ASA/SA) | Reversal of SA effect by SAM (platelet cyclooxygenase; SAM 120 μg/ml with ASA/SA) | Effect of SAM on ASA inhibition of TX B2 synthesis (platelet cyclooxygenase; SAM 40 or 120 μg/ml coadministered with ASA) | Effect on TX B2 formation / platelet cyclooxygenase (platelet cyclooxygenase) | Effect on the aspirin-antagonistic effect of SA (platelet cyclooxygenase; platelet cyclooxygenase) | Effect on tightly protein-bound 14C in lung ([1]; high dose) | Effect on tightly protein-bound 14C in lung ([1]; low dose) | Effect of ASA on tightly protein-bound 14C in heart ([1]; low dose combination) | Effect of ASA addition to SAM/SA on TX B2 (platelet cyclooxygenase) |
| --- | --- | --- | --- | --- | --- | --- | --- | --- | --- | --- | --- | --- | --- | --- | --- | --- | --- | --- | --- |
| N[14C](=O)c1ccccc1O [^14 C-SAM] | 20.6 ± 1.7 ng ^14 C/gm tissue | 669.0 ± 45.1 ng ^14 C/gm tissue | 24.2 ± 4.0 ng ^14 C/gm tissue | 43.1 ± 6.1 ng ^14 C/gm tissue | 57.8 ± 3.0 ng ^14 C/ml plasma | 87.7 ± 11.0 ng ^14 C/gm tissue | 1104.5 ± 212.6 ng ^14 C/gm tissue | 72.6 ± 10.7 ng ^14 C/gm tissue | 134.8 ± 20.7 ng ^14 C/gm tissue | 154.6 ± 29.8 ng ^14 C/ml plasma | – | – | – | – | – | – | – | – | – |
| NC(=O)c1ccccc1O [SAM, Salicylamide] | – | – | – | – | – | – | – | – | – | – | ~ 60% | completely preempted SA effect | did not influence ASA inhibition of TX B2 synthesis; also recorded: did not alter ASA-induced inhibition of platelet cyclooxygenase | did not change TX B2 production compared to control | dose-dependently quench the aspirin-antagonistic effect of SA | – | – | – | – |
| CC(=O)Oc1ccccc1C(=O)O [ASA, acetylsalicylic acid] | – | – | – | – | – | – | – | – | – | – | – | – | – | significant inhibition of TX B2 formation | – | reached a significant level | tended to be higher | significantly enhanced | significant blocking of platelet cyclooxygenase |
